From US20220369688A1, “ORAL COMPOSITIONS AND RELATED METHODS FOR REDUCING THROAT IRRITATION” (NICOVENTURES TRADING LIMITED, priority 2021, published 2022)
Read-outs that look alike come from different tables or passages of the source.

What was measured:
[1] = cited from earlier work
[2] = organic acid, octanol/water; cited from earlier work
[3] = 1,000 ppm nicotine, 2 equivalents of octanoic acid (sodium octanoate), pH 6.5
Method: A pH probe was submerged in the resulting liquid and HCl (0.05 M) was added under stirring to bring the solution to pH 6.5. The flask weight was then brought up to 100 grams with RO water. […] Partitioning was performed by removing aliquots (10 mL) of each solution and placing into separate 20 ml scintillation vials. Octanol (10 ml) was added to each vial. The vials were then placed on a wrist action shaker for 20 minutes. Following agitation, the vials were allowed to separate for 30 min. and an aliquot (100 μl) of each octanol layer was removed and diluted with 900 μl octanol in 2 mL GC/MS vials.

human buccal tissue = conditions: nicotine solution at pH=6 relative to pH 8.1; cited from earlier work
[4] = cited from earlier work; remark: listed apart in the source
[5] = 1,000 ppm nicotine, pH 6.5

## CC(/C=C/C=C(C)/C=C/C(=O)O)=C\C=C\C=C(C)\C=C\C=C(C)\C=C\C(=O)O (stereo in doubt) [norbixin, (2E,4E,6E,8E,10E,12E,14E,16E,18E)-4,8,13,17-tetramethylicosa-2,4,6,8,10,12,14,16,18-nonaenedioic acid]
[1]
  solubility in water: water soluble

## CCCCCCCS(=O)(=O)O [1-heptanesulfonic acid]
[2]
  logP: 0.88

## O=C(O)c1ccccc1 [benzoic acid]
1000 ppm nicotine in unbuffered water with 1 molar equivalent of sodium benzoate, 100 μl octanol aliquot diluted in 900 μl
  concentration in octanol: 19.2 ppm
1000 ppm nicotine, 1 molar equivalent sodium benzoate
  benzoic acid molarity in octanol in terms of nicotine mass: 25.5 ppm nicotine

## COC(=O)/C=C/C(C)=C\C=C\C(C)=C\C=C\C=C(C)\C=C\C=C(C)\C=C\C(=O)O [bixin, (2E,4E,6E,8E,10E,12E,14E,16Z,18E)-20-methoxy-4,8,13,17-tetramethyl-20-oxoicosa-2,4,6,8,10,12,14,16,18-nonaenoic acid]
[1]
  solubility in water: insoluble in water

## CC(=O)CCC(=O)O [levulinic acid]
[2]
  logP: −0.49

## CC(C)[C@@H]1CC[C@@H](C)C[C@H]1OC(=O)CCC(=O)O [monomenthyl succinate]
[2]
  logP: 3

## CN1CCCC1c1cccnc1 (centres unmarked) [nicotine]
[3]
  nicotine partitioned into octanol: ~67%
Human buccal tissue
  factor by which diffusion rate is reduced: ~7
[4]; pyridine ring nitrogen
  log Ka1: 3.41
[4]; pyrrolidine ring nitrogen
  log Ka2: 8.02
[5]; 10 eq. benzoic acid (sodium benzoate)
  % nicotine in octanol: ~52%
[5]; 10 eq. octanoic acid (sodium octanoate)
  % nicotine in octanol: ~75%

## CCCCCCCC(=O)O [octanoic acid]
[2]
  logP: 3.05

## O=C(O)C(O)C(O)C(=O)O (centres unmarked) [tartaric acid]
[2]
  logP: −1.9

## ethyl benzoic acid
[2]
  logP: 2.9

## isopropyl benzoic acid
[2]
  logP: 3.5
